Test results reported in US10570176B2, “Anti-hepatitis B virus X protein polypeptide pharmaceutical” (priority 2015, dated 2020).
Non-standard residues stand in square brackets, D forms with d. No end group written: not given here.

How the values were obtained:
[1] = test system: liver cancer HepAD38 cells integrated with HVB DNA; test: HBeAg secretion ELISA in HepAD38 cells; assay type: cell-based; details: for Inhibition of HBeAg secretion levels: 10 μM
Description: (§1) 3. Analysis of function of D-TTK001 on HBeAg secreation in liver cancer cells utilizing enzyme-linked immunosorbent assay (ELISA)
(§2) (i) Biosafety cabinet was ultraviolet sterilized for 30 min and purged for 30 min; DMEM/F12 (1:1) culture medium containing 15% fetal bovine serum, HepAD38 cells (or HepG2.2.15 cells) were taken out, sterilized with 75% alcohol, and placed in the biosafety cabinet.
(§3) (ii) Under aseptic conditions, discard old culture medium, add 3 mL 1×PBS each time, wash twice, add 1 mL 0.25% trypsin, the cells were digested until cell rounding as observed in microscope. Add 5 mL culture medium, dispense cells, count with hemocytometer, and dilute with culture medium to a cell number of 1˜2×10^4 cells/mL.
(§4) (iii) Plating 96-well plate. Under aseptic conditions, discard old culture medium, add 3 mL 1×PBS each time, wash twice, add 1 mL 0.05% trypsin, the cells were digested until cell rounding as observed in microscope. Add 10 mL culture medium, dispense cells, count with hemocytometer, and dilute with DMEM/F12(1:1) culture medium, add 100 μL cell suspension into each well to a cell number of 1˜2×10^3 cells/mL. The outer-most wells are not added with cells. Culturing until cell attachment (usually 12 hrs.) and extension. Subsequent tests can be conducted when cells are in good condition.
(2) Applying D-TTK001 (or L-TTK001, i.e., anti-HBxP1#) to liver cancer HepAD38 cells (or HepG2.2.15 cells)
10 mM D-TTK001 (or L-TTK001) mother solution was serially diluted from high concentration to low concentration, added into liver cancer HepAD38 cells (or HepG2.2.15 cells) culture solution to obtain final concentrations of D-TTK001 (or L-TTK001) of 0.1 μM, 1 μM, 10 and 100 μM in respective groups. […]
(3) Applying ELISA to measure HBeAg content in HepAD38 cell (or HepG2.2.15 cell) culture medium
(i) Balancing: place HBeAg assay kit in room temperature for 30 min.
(ii) Preparing solution: dilute concentrated wash liquid for 25 times with purified water.
(iii) Taking out the plate: take out the reaction plate according to experimental requirements (3 wells for negative control, 1 well for positive control, and 1 well for blank control).
(iv) Adding sample: add 75 μL of test samples or negative/positive control into respective wells, gently shake and mix.
(v) Incubating: after sealed with microplate sealer, incubate at 37° C. for 60 min.
(vi) Adding enzyme: add 50 μL of enzyme conjugates into each well except for blank wells, gently shake and mix.
(vii) Incubating: after sealed with microplate sealer, incubate at 37° C. for 30 min.
(viii) Washing plate: remove microplate sealer carefully, manually wash plate for 5 times, pat dry.
(ix) Developing color: add 50 μL each of color-developing agent A and B liquid, gently shake and mix, develop color in dark placed at 37° C. for 30 min.
(§5) (x) Stopping: add 50 μL of stop solution into each well, gently shake and mix, measure the result in ten minutes. Set wavelength of microplate reader to 450 nm, measure OD value for each well after zero setting with blank wells.
The invention also investigates the role of the functional variants of the polypeptide and functional fragments thereof. The sequences as shown in the following table are artificially synthesized D-amino acid substituted sequences on the basis of L-TTK001 (i.e., anti-HBxP1#). The polypeptide fragments were artificially synthesized according to the sequences (method as above), and then, above-mentioned ELISA method was adopted to observe the change in the functions of the polypeptides.

HepAD38 cells = test: MTT assay, proliferation of HepAD38 cells; assay type: cell-based; details: 0.1, 1, 10, 100 μM, 48 hrs
Description: (1) Plating cells: suspend HepAD38 cells at exponential phase in RPMI1640 medium with 10% FBS, and plate 4000-5000 cells in a 96-well plate with 100 μL per well.
(2) Culturing cells: within 12 hrs. for adhesion of cultured cells, add different concentrations of synthesized D-TTK001 (or L-TTK001) polypeptides from Example 1 (0.1 μM, 1 μM, 10 μM and 100 μM) into 8 wells for each concentration, and incubate for 48 hrs. in common condition.
(3) Coloration: add 20 μL of MTT solution (5 mg/mL MTT in PBS buffer (pH7.4)) for each well.
(4) Incubate for 4 hrs., and carefully aspirate off the supernatant from the wells. Add 150 μL of DMSO into each well, shake for 10 min until the crystals were dissolved.
(5) Comparison: Read in an ELISA reader at 490 nm to measure the absorbance for each well. Results were calculated using Student's t-test.

HBx protein = molecular target: T1, HBx protein (Hepatitis B virus genotype D subtype ayw, UniProt P03165); test: In vitro binding to recombinantly expressed HBx protein, Biacore 3000; details: in vitro binding to HBx, in vitro binding analysis results
T1 construct: made in house
Description: The recombinant plasmid (pET-30a-HBx) expressing HBx gene was self-constructed and preserved (Zhang H, et al. J Biomed Biotechnol, doi:10.1155/2009/289068), and then expression and purification of HBx were conducted according to above reference for the measurement of in vitro binding ability. Biacore 3000 biomolecular interaction analyzing unit (manufactured by GE Healthcare) was utilized to measure in vitro binding ability of polypeptide D-TTK001 to recombinantly expressed HBx protein. Polypeptide at different concentrations were injected for 180 seconds at a rate of 30 μL/min. In dissociation stage, HBS-EP buffer was injected for 900 seconds at a rate of 30 μL/min, then at a rate of 30 μL/min, 2 shots of 1 mM NaOH were injected for 20 seconds to regenerate the chip. All signals were calibrated using channel 1 as the reference channel. Binding measurement was conducted twice, respectively, wherein in the first measurement, HBX was injected into the channel of the coupled polypeptide and the blank channel at concentrations of 0 nM, 10 nM, 50 nM, 100 nM, 500 nM and 600 nM, respectively. Binding time was 180 seconds and dissociation time was 400 seconds. On chip surface, 1 mM NaOH was injected for 20 seconds at a rate of 30 μL/min for regeneration. In the second measurement, HBX was injected into the channel of coupled polypeptide and the blank channel at concentrations of 0 nM, 10 nM, 50 nM, 588 nM, 1 μM, and 2 μM, respectively. Binding time was 180 seconds and dissociation time was 400 seconds. On chip surface, 1 mM NaOH was injected for 20 seconds at a rate of 30 μL/min for regeneration. Results were kinetically analyzed by BIA Evaluation Software.

HepG2.2.15 cells = test: HBeAg secretion ELISA in HepG2.2.15 cells; assay type: cell-based; details: 0.1, 1, 10, 100 μM
Description: as §1, §2, §3
as §4, with “The outer-most wells are not added with cells. Culturing until cell attachment (usually 12 hrs.) and extension. Subsequent tests can be conducted when cells are in good condition.” left out
as §5

T1 sequence (P03165 whole entry): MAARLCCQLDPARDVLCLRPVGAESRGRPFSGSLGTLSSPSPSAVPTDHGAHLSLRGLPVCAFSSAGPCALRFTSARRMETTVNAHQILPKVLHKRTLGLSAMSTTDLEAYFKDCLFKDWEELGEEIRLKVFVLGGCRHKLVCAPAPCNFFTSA

| Substance | Inhibition of HBeAg secretion levels [1] | further results |
| --- | --- | --- |
| G-D/S-A-V-M-F-S-S-K-E-R-G (G[dS]AVMFSSKERG) [D-TTK001-1] | inhibits HBeAg secretion levels of HepAD38 cells to various extents |  |
| G-S-A-D/V-M-F-S-S-K-E-R-G (GSA[dV]MFSSKERG) [D-TTK001-3] | inhibits HBeAg secretion levels of HepAD38 cells to various extents |  |
| G-S-A-V-D/M-F-S-S-K-E-R-G (GSAV[dM]FSSKERG) [D-TTK001-4] | inhibits HBeAg secretion levels of HepAD38 cells to various extents |  |
| G-S-A-V-M-D/F-S-S-K-E-R-G (GSAVM[dF]SSKERG) [D-TTK001-5] | inhibits HBeAg secretion levels of HepAD38 cells to various extents |  |
| G-S-A-V-M-F-D/S-S-K-E-R-G (GSAVMF[dS]SKERG) [D-TTK001-6] | inhibits HBeAg secretion levels of HepAD38 cells to various extents |  |
| G-S-A-V-M-F-S-D/S-K-E-R-G (GSAVMFS[dS]KERG) [D-TTK001-7] | inhibits HBeAg secretion levels of HepAD38 cells to various extents |  |
| G-S-A-V-M-F-S-S-D/K-E-R-G (GSAVMFSS[dK]ERG) [D-TTK001-8] | inhibits HBeAg secretion levels of HepAD38 cells to various extents |  |
| G-S-A-V-M-F-S-S-K-D/E-R-G (GSAVMFSSK[dE]RG) [D-TTK001-9] | inhibits HBeAg secretion levels of HepAD38 cells to various extents |  |
| G-S-A-V-M-F-S-S-K-E-D/R-G (GSAVMFSSKE[dR]G) [D-TTK001-10] | inhibits HBeAg secretion levels of HepAD38 cells to various extents |  |
| G-S-D/A-V-M-F-S-S-K-E-R-G (GS[dA]VMFSSKERG) [D-TTK001-2] | inhibits HBeAg secretion levels of HepAD38 cells to various extents |  |
| GSAVMFSSKERG [L-TTK001, Gly-Ser-Ala-Val-Met-Phe-Ser-Ser-Lys-Glu-Arg-Gly, reference compound] |  | Minimum effective dose on growth and proliferation (MTT) (HepAD38 cells): 10 µM; Minimum effective dose on HBeAg secretion levels ([1]; 0.1, 1, 10, 100 μM): 10 µM; Kd (HBx protein): 8 nM; Minimum effective dose on HBeAg secretion levels (HepG2.2.15 cells): 10 µM |
